What was measured:
db/db mice = experiment: Blood glucose and insulin in mouse model of type II diabetes (Example 4); assay type: in vivo; conditions: single administration 0.2 g/kg per day by gavage, two weeks
Description: Effects of a Limonoid Compound, Metformin or a Combination Thereof on Blood Glucose and Insulin in a Mouse Model of Type II Diabetes
In the present embodiment, the limonoid compound selected nomilin, deacetylnomilin, nomilin acid, deactylnomilin 17-β-D-glucopyranoside, and a nomilin single administration group, deacetylnomilin single administration group, nomilin acid single administered group, deactylnomilin 17-β-D-glucopyranoside single administration group, and combination thereof with metformin administration groups were set, respectively.
Conditions for experimental feeding: as type II diabetes model mice, 6-week-old SPF-grade db/db mice were purchased from the Nanjing Model Biology Institute, and subjected to experimental feeding after 7 days of preliminary feeding. It should be noted that the conditions for raising the mice were as follows: the temperature was 23±1° C., the humidity was 55±10%, the lights were turned on between 7 am and 7 pm (the lights were turned off at other time), and the mice were allowed to access to water and feed freely. The experimental feed was mouse growth-stable feed (GB M2118), and the daily feeding and management of the animals were under the responsibility of the animal security department, which provided the animals with sufficient padding and fresh drinking water daily.
Experimental grouping: male db/db mice (20±2 g) were selected, 18 male mice in each group were tested, and drinking bottles were sterilized weekly. The experimental groups included the normal control group (db/m, n=18), the model group (db/db, n=18), the nomilin group (db/db, n=18), the deacetylnomilin group (db/db, n=18), the nomilin acid group (db/db, n=18), the deactylnomilin 17-β-D-glucopyranoside group (db/db, n=18), the metformin group (db/db, n=18), the nomilin/metformin combination group (db/db, n=18), the deacetylnomilin/metformin combination group (db/db, n=18), the nomilin acid/metformin combination group (db/db, n=18), the deactylnomilin 17-β-D-glucopyranoside/combination group (db/db, n=18).
Gavage doses: nomilin at a dose of 0.2 g/kg was gavaged per day for the nomilin group, deacetylnomilin at a dose of 0.2 g/kg was gavaged per day for the deacetylnomilin group, nomilin acid at a dose of 0.2 g/kg was gavaged per day for the nomilin acid group, deacetylnomilin […] at a dose of 0.2 g/kg was gavaged per day for the deactylnomilin glucopyranoside group, metformin at a dose of 0.2 g/kg was gavaged per day for the metformin group, nomilin at a dose of 0.1 g/kg and metformin at a dose of 0.1 g/kg were simultaneously gavaged per day for the nomilin/metformin combination group, nomilin acid at a dose of 0.1 g/kg and metformin at a dose of 0.1 g/kg were simultaneously gavaged per day for the nomilin acid/metformin combination group, deacetylnomilin at a dose of 0.1 g/kg and metformin at a dose of 0.1 g/kg were simultaneously gavaged per day for the deacetylnomilin/metformin combination group, deactylnomilin 17-β-D-glucopyranoside at a dose of 0.1 g/kg and metformin at a dose of 0.1 g/kg were simultaneously gavaged per day for the deactylnomilin 17-β-D-glucopyranoside/metformin combination group, the gavage volume was 10 mL/kg, and the normal group and the model group were administrated with 10 mL/kg of distilled water. Two weeks later, the blood glucose values were measured by tail trimming method (Johnson's blood glucose meter) 1 h after the last administration, and serum insulin levels were measured with blood collected from orbital cavity by enzyme-linked immunosorbent assay (Elisa), and the average of each group was obtained. SPSS 16.0 software was used for statistical analysis. The data were expressed as mean and standard deviation. The data before and after were analyzed by t-test, and P<0.05 was considered statistically significant.

ICR mice = experiment: Body weight, triglycerides and total cholesterol in obesity mouse model (Example 6); assay type: in vivo; conditions: high-fat feed ICR mice, single administration 0.1 g/kg per day by gavage, two weeks
Description: Effects of a Limonoid Compound, Metformin or a Combination Thereof on Body Weight, Triglycerides, and Total Cholesterol in an Obesity Mouse Model
In this example, ICR mice were used to complete the experiment for evaluation of lipid lowering and weight loss in animals (body weight, serum cholesterol, and serum triglycerides).
In this example, the limonoid compound was nomilin, and a metformin single administration group, nomilin single administration group, and metformin/nomilin combination administration groups (dose A and B groups) were set, respectively.
Conditions of experimental feeding: ICR mice, purchased from the Animal Center of Zhejiang Academy of Medical Sciences, half male and half female, body weight (20±2 g), fed with basic feed provided by the Animal Center of Zhejiang Medical Academy. It should be noted that the conditions for raising the mice were as follows: the temperature was 23±1° C., the humidity was 55±10%, the lights were turned on between 7 am and 7 pm (the lights were turned off at other time), and the mice were allowed to access to water and feed freely. The daily feeding and management of the animals were under the responsibility of the animal security department, which provided the animals with sufficient padding and fresh drinking water daily.
The ICR mice were randomly divided into the normal group and the high-fat feed group, according to body weight. The normal group was fed with ordinary feed from the beginning to the end of the experiment.
Gavage dose: nomilin at a dose of 0.1 g/kg was gavaged per day for the nomilin group, metformin at a dose of 0.1 g/kg was gavaged per day for the metformin group, nomilin at a dose of 0.05 g/kg and metformin at a dose of 0.05 g/kg were simultaneously gavaged per day for the combination dose group A, nomilin at a dose of 0.1 g/kg and metformin at a dose of 0.1 g/kg were simultaneously gavaged per day for the combination dose group B, the gavage volume was 10 mL/kg, and the normal group and the model group were administrated with 10 mL/kg of distilled water. Two weeks later, the mice were weighed, blood sampled from orbital cavity, measured to determine serum total cholesterol and triglyceride levels, and the average values of each group were obtained. SPSS 16.0 software was used for statistical analysis. The data were expressed as mean and standard deviation. The data before and after were analyzed by t-test, and P<0.05 was considered statistically significant.

With `CN(C)C(=N)NC(=N)N` [Metformin, N,N-dimethylimidodicarbonimidic diamide, reference compound] the Insulin (db/db mice; serum, Elisa) was 8.19 ± 2.10 pg/mL, the Blood glucose value (db/db mice; 1 h after last administration) was 12.2 ± 3.6 mmol/L and the “Body weight gaining rate” value (ICR mice) was 11.56%. The Total cholesterol (ICR mice; serum) was 3.35 ± 0.07 mmol/L and the Triglycerides (ICR mice; serum) was 1.17 ± 0.30 mmol/L.
